Like-named read-outs stand apart in the source and are kept apart here.
Assays:
[1] = system: human SKM-1 acute myeloid leukemia cells; assay: SKM-1 antiproliferation cell-based assay (ATPlite); conditions: Homo sapiens
Summary of the method: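 Log-phase cells in RPMI 1640/15% FBS were seeded at 34722 cells/mL and exposed for 4 days to nine-concentration DMSO serial dilutions in triplicate. Viability was read as ATP luminescence (ATPlite 1step), and IC50 values came from variable-slope non-linear regression.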

[2] = target: T1, human BRD4 bromodomain II (Homo sapiens, UniProt O60885); assay: Bromodomain binding assay (AlphaScreen), BRD4 BDII
T1 construct: human BRD4 bromodomain II [based on Genbank NM_058243, residues 349-460]; host or cells: E. coli
Summary of the method: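 E. coli-expressed N-terminal His6-tagged human BRD4 BDII (residues 349-460) or BDI (residues 44-170) was preincubated 30 min at room temperature with compound (10-point, 3-fold) in pH 7.5 HEPES buffer, 1% DMSO. Displacement of biotinylated tetra-acetylated H4 1-21 peptide was read by AlphaScreen, and IC50 came from curve fitting.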

[3] = SKM-1, 96 h, SKM-1 antiproliferation assay, 4 days, Table C2
[4] = AlphaScreen assay, Table C2, read-out: BRD4 BDII IC50
[5] = SKM-1, SKM-1 antiproliferation assay
[6] = BRD4 BDII AlphaScreen assay, read-out: BRD4 BD2 IC50

Row | Structure (SMILES) | GI50 [1, 3] | IC50 [2, 4] | GI50 [1, 5] | IC50 [2, 6]
1 | CC(C)N1C2CCC1CN(c1cc(-c3cc(F)cc(-c4ccc(-n5ccn(C)c5=O)c(Cl)c4)c3O)ccn1)C2 [Example 730, 1-(3-chloro-5′-fluoro-2′-hydroxy-3′-(2-(8-isopropyl-3,8-diazabicyclo[3.2.1]octan-3-yl)pyridin-4-yl)-[1,1′-biphenyl]-4-yl)-3-methyl-1H-imidazol-2(3H)-one] | 0.3 to 30 nM | 0.01 to 1 nM |  | 
2 | CNc1ncc(-c2nc(C)cc(-c3ccc(-n4ccn(C)c4=O)c(Cl)c3)c2O)cc1N1CCN(C(C)(C)C)CC1 [Example 963, 1-(4-(5′-(4-(tert-butyl)piperazin-1-yl)-3-hydroxy-6-methyl-6′-(methylamino)-[2,3′-bipyridin]-4-yl)-2-chlorophenyl)-3-methyl-1H-imidazol-2(3H)-one] |  |  | 0.3 to 30 nM | 1 to 10 nM
3 | C[C@@H]1CN(c2cc(-c3cc(F)cc(-c4ccc(-n5ccn(C)c5=O)c(Cl)c4)c3O)cc3[nH]c(=O)[nH]c23)CCN1 [Example 603, (R)-6-(3′-chloro-5-fluoro-2-hydroxy-4′-(3-methyl-2-oxo-2,3-dihydro-1H-imidazol-1-yl)-[1,1′-biphenyl]-3-yl)-4-(3-methylpiperazin-1-yl)-1H-benzo[d]imidazol-2(3H)-one] | 30 to 300 nM | 0.01 to 1 nM |  | 
4 | Cn1ccn(-c2ccc(-c3cc(F)cc(-c4ccnc(N5CCS(=N)(=O)CC5)c4)c3O)cc2Cl)c1=O [Example 915, 1-(3-chloro-5′-fluoro-2′-hydroxy-3′-(2-(1-imino-1-oxidothiomorpholino)pyridin-4-yl)-[1,1′-biphenyl]-4-yl)-3-methyl-1H-imidazol-2(3H)-one] |  |  | 30 to 300 nM | 0.01 to 1 nM
5 | CN1CCN(c2ccc(-c3cc(F)cc(-c4ccnc(N5CC6(CNC6)C5)c4)c3O)cc2Cl)C1=O [Example 352, 1-(3′-(2-(2,6-diazaspiro[3.3]heptan-2-yl)pyridin-4-yl)-3-chloro-5′-fluoro-2′-hydroxy-[1,1′-biphenyl]-4-yl)-3-methylimidazolidin-2-one] | 300 to 3000 nM | 10 to 100 nM |  | 
6 | CN1CCN(c2c(F)cc(-c3cc(F)cc(-c4ccnc(N5CCNCC5)c4)c3O)cc2F)C1=O [Example 384, 1-methyl-3-(3,5,5′-trifluoro-2′-hydroxy-3′-(2-(piperazin-1-yl)pyridin-4-yl)-[1,1′-biphenyl]-4-yl)imidazolidin-2-one] | 300 to 3000 nM | 10 to 100 nM |  | 
7 | Cc1cc(-c2ccc(-n3ccn(C)c3=O)c(Cl)c2)c(O)c(-c2cc(N3CCN[C@H](C)C3)c3cn[nH]c3c2)c1 [Example 585, (R)-1-(3-chloro-2′-hydroxy-5′-methyl-3′-(4-(3-methylpiperazin-1-yl)-1H-indazol-6-yl)-[1,1′-biphenyl]-4-yl)-3-methyl-1H-imidazol-2(3H)-one] | 0.3 to 30 nM | 1 to 10 nM |  | 
8 | CN(C)[C@H]1CCCN(c2cc(-c3cc(F)cc(-c4ccc(-n5ccn(C)c5=O)c(Cl)c4)c3O)ccn2)C1 [Example 457, (S)-1-(3-chloro-3′-(2-(3-(dimethylamino)piperidin-1-yl)pyridin-4-yl)-5′-fluoro-2′-hydroxy-[1,1′-biphenyl]-4-yl)-3-methyl-1H-imidazol-2(3H)-one] | 0.3 to 30 nM | 1 to 10 nM |  | 
9 | C#CCN1CCN(c2ccc(-c3cc(F)cc(-c4ccnc(N5CCNCC5)c4)c3O)cc2Cl)C1=O [Example 367, 1-(3-chloro-5′-fluoro-2′-hydroxy-3′-(2-(piperazin-1-yl)pyridin-4-yl)-[1,1′-biphenyl]-4-yl)-3-(prop-2-yn-1-yl)imidazolidin-2-one] | 300 to 3000 nM | > 100 nM |  | 
10 | C[C@@H]1CN(c2cccc(-c3cc(F)cc(-c4ccc(-n5ccn(C)c5=O)c(Cl)c4)c3O)c2)CCN1 [Example 671, (R)-1-(3-chloro-5′-fluoro-2′-hydroxy-3″-(3-methylpiperazin-1-yl)-[1,1′:3′,1″-terphenyl]-4-yl)-3-methyl-1H-imidazol-2(3H)-one] | 0.3 to 30 nM | 0.01 to 1 nM |  | 
11 | Cn1ccn(-c2ccc(-c3cc(F)cc(-c4ccnc(N5CCN(CC6COC6)CC5)c4)c3O)cc2Cl)c1=O [Example 611, 1-(3-chloro-5′-fluoro-2′-hydroxy-3′-(2-(4-(oxetan-3-ylmethyl)piperazin-1-yl)pyridin-4-yl)-[1,1′-biphenyl]-4-yl)-3-methyl-1H-imidazol-2(3H)-one] | 0.3 to 30 nM | 0.01 to 1 nM |  | 
12 | Cn1ccn(-c2ccc(-c3cc(F)cc(-c4ccnc(N5CCNC(C(F)(F)F)C5)c4)c3O)cc2Cl)c1=O (centres unmarked) [Example 454, 1-(3-chloro-5′-fluoro-2′-hydroxy-3′-(2-(3-(trifluoromethyl)piperazin-1-yl)pyridin-4-yl)-[1,1′-biphenyl]-4-yl)-3-methyl-1H-imidazol-2(3H)-one] | 300 to 3000 nM | 1 to 10 nM |  | 
13 | Cn1ccn(-c2ccc(-c3cc(F)cc(-c4cccc(-c5cccc(CN)c5)c4)c3O)cc2Cl)c1=O [Example 866] |  |  | 300 to 3000 nM | 10 to 100 nM
14 | CSc1cc(-c2cc(F)cc(-c3cnc(SC)c(N4CCN(C(C)C)CC4)c3)c2O)ccc1-n1ccn(C)c1=O [Example 818, 1-(5′-fluoro-2′-hydroxy-3′-(5-(4-isopropylpiperazin-1-yl)-6-(methylthio)pyridin-3-yl)-3-(methylthio)-[1,1′-biphenyl]-4-yl)-3-methyl-1H-imidazol-2(3H)-one] | 30 to 300 nM | > 100 nM |  | 
15 | Cc1cc(-c2ccc(-n3ccn(C)c3=O)c(Cl)c2)c(O)c(-c2ccc(Cl)c(N3CCN(C(C)(C)C)CC3)c2)n1 [Example 1013, 1-(4-(2-(3-(4-(tert-butyl)piperazin-1-yl)-4-chlorophenyl)-3-hydroxy-6-methylpyridin-4-yl)-2-chlorophenyl)-3-methyl-1H-imidazol-2(3H)-one] |  |  | 0.3 to 30 nM | 1 to 10 nM
16 | CN1CCN(c2ccc(-c3cccc(-c4ccc5[nH]c6c(c5c4)CNCC6)c3O)cc2Cl)C1=O [Example 369, 1-(3-chloro-2′-hydroxy-3′-(2,3,4,5-tetrahydro-1H-pyrido[4,3-b]indol-8-yl)-[1,1′-biphenyl]-4-yl)-3-methylimidazolidin-2-one] | ≥ 3000 nM | 10 to 100 nM |  | 
17 | Cn1ccn(-c2ccc(-c3cc(F)cc(-c4ccnc(N5CCN(CCO)CC5)c4)c3O)cc2Cl)c1=O [Example 471, 1-(3-chloro-5′-fluoro-2′-hydroxy-3′-(2-(4-(2-hydroxyethyl)piperazin-1-yl)pyridin-4-yl)-[1,1′-biphenyl]-4-yl)-3-methyl-1H-imidazol-2(3H)-one] | 0.3 to 30 nM | 0.01 to 1 nM |  | 
18 | Cc1cc(-c2ccc(-n3cc[nH]c3=O)c(Cl)c2)c(O)c(-c2cccc(N3CCN(C(C)(C)C)CC3)c2)n1 [Example 1035, 1-(4-(2-(3-(4-(tert-butyl)piperazin-1-yl)phenyl)-3-hydroxy-6-methylpyridin-4-yl)-2-chlorophenyl)-1,3-dihydro-2H-imidazol-2-one] |  |  | 30 to 300 nM | 10 to 100 nM
19 | CC(C)N1CCN(c2cccc(-c3cc(F)cc(-c4ccc(-n5ccn(C)c5=O)c(Cl)c4)c3O)c2)CC1 [Example 699, 1-(3-chloro-5′-fluoro-2′-hydroxy-3″-(4-isopropylpiperazin-1-yl)-[1,1′:3′,1″-terphenyl]-4-yl)-3-methyl-1H-imidazol-2(3H)-one] | 0.3 to 30 nM | 0.01 to 1 nM |  | 
20 | COCC(C)(C)N1CCN(c2cc(-c3cc(F)cc(-c4ccc(-n5ccn(C)c5=O)c(Cl)c4)c3O)cnc2OC)CC1 [Example 850, 1-(3-Chloro-5′-fluoro-2′-hydroxy-3′-(6-methoxy-5-(4-(1-methoxy-2-methylpropan-2-yl)piperazin-1-yl)pyridin-3-yl)-[1,1′-biphenyl]-4-yl)-3-methyl-1H-imidazol-2(3H)-one] |  |  | 0.3 to 30 nM | 1 to 10 nM
21 | Cn1ccn(-c2ccc(-c3cc(F)cc(-c4ccnc(N5CCC(O)(CO)C5)c4)c3O)cc2Cl)c1=O (centres unmarked) [Example 731, 1-(3-chloro-5′-fluoro-2′-hydroxy-3′-(2-(3-hydroxy-3-(hydroxymethyl)pyrrolidin-1-yl)pyridin-4-yl)-[1,1′-biphenyl]-4-yl)-3-methyl-1H-imidazol-2(3H)-one] | 0.3 to 30 nM | 0.01 to 1 nM |  | 
22 | CC1CN(c2cc(-c3cccc(-c4ccc(N5CCCC5=O)c(Cl)c4)c3O)ccn2)CC(C)N1 (centres unmarked) [Example 267, 1-(3-chloro-3′-(2-(3,5-dimethylpiperazin-1-yl)pyridin-4-yl)-2′-hydroxy-[1,1′-biphenyl]-4-yl)pyrrolidin-2-one] | 30 to 300 nM | 1 to 10 nM |  | 
23 | CC(=O)Nc1ccc(-c2cccc(-c3ccnc(C#CCCN)c3)c2O)cc1F [Example 304, N-(3′-(2-(4-aminobut-1-yn-1-yl)pyridin-4-yl)-3-fluoro-2′-hydroxy-[1,1′-biphenyl]-4-yl)acetamide] | 300 to 3000 nM | 10 to 100 nM |  | 
24 | CC(=O)Nc1cc(-c2cc(F)cc(-c3ccc(N4CCN(C)C4=O)c(Cl)c3)c2O)cc(N2CCNCC2)n1 [Example 433, N-(4-(3′-chloro-5-fluoro-2-hydroxy-4′-(3-methyl-2-oxoimidazolidin-1-yl)-[1,1′-biphenyl]-3-yl)-6-(piperazin-1-yl)pyridin-2-yl)acetamide] | 0.3 to 30 nM | 1 to 10 nM |  | 
25 | C[C@@H]1CN(c2cc(-c3cc(F)cc(-c4ccc(-n5ccn(C)c5=O)c(Cl)c4)c3O)ccn2)CCN1C [Example 493, (R)-1-(3-chloro-3′-(2-(3,4-dimethylpiperazin-1-yl)pyridin-4-yl)-5′-fluoro-2′-hydroxy-[1,1′-biphenyl]-4-yl)-3-methyl-1H-imidazol-2(3H)-one] | 0.3 to 30 nM | 0.01 to 1 nM |  | 
